Data taken from patent US5756491A, “Antiviral cobalt-organic compounds” (priority 1991, dated 1998).

Columns and labels:
HSV-2 (MS strain) = test: Vaginal virus replication in primary genital HSV-2 infection of guinea pigs; assay type: in vivo, Female Hartley strain guinea pigs; conditions: for # Infected/# Inoculated / Mean Peak Virus Titer / P-Value for Mean Peak Virus Titer / Virus Titer-Day Area Under Curve: 20 mg/ml; for infectivity rate: treatment beginning 6 h after infection
Method: A series of studies were carried out to compare the activity of inventive antiviral Compounds 23, 76, and 82 in a primary genital HSV-2 infection of guinea pigs. The experiments were placebo-controlled and uninfected animals were treated with three concentrations of each of the preparations to assess skin irritation and determine the maximum tolerated dose.
The MS strain of HSV-2 was utilized for the experimental animal infection. Female Hartley strain guinea pigs (Charles River Breeding Laboratories, Kingston, N.Y.) weighing 250-300 g were inoculated intravaginally with 1.4×10^5 plaque forming units of HSV-2 one hour after being swabbed for the removal of vaginal secretions.
Groups of 10 infected guinea pigs were treated topically as stated above with 20 mg/ml (the maximum tolerated dose) of each compound beginning 6 h or 24 h after inoculation with HSV-2.
To determine the effect of treatment on vaginal virus replication, swabs of vaginal secretions were obtained on days 1, 3, 5, 7, and 10 after HSV-2 inoculation, placed in a tube containing 2.0 ml of media, vortexed and frozen at -70° until titrated for HSV-2. When all samples were collected, they were thawed, diluted serially and HSV-2 titers were determined using rabbit kidney cells in a microtiter CPE assay. Mean peak virus titers and areas under the virus titer-day curves were calculated and analyzed.
The number of animals infected over the number inoculated, lesion score-day areas and virus titer-day areas under the curve, peak lesion scores and peak virus titers between untreated and placebo-treated or placebo-treatedand drug-treated animals were compared using the Mann-Whitney U rank sum test. A p-value of 0.05 or less was considered significant.

HFF cells [1] = test: Neutral red uptake toxicity; assay type: cell-based, human; conditions: stationary cells
VZV = test: In vitro assay with VZV on HFF monolayers; assay type: cell-based; conditions: for virucidal efficacy (VZV titer): Table 20, 7 days PI; for effective virucidal concentration IC50: Table 21, VZV
Method: VZV was grown to a CPE level in vitro assays with VZV of 3-4+ on HFF cell monolayers. The VZV was scraped from the flask, centrifuged and the cell pellet was resuspended in 10 ml of complete medium. One hundred to 200 μl of the VZV cell associated inoculum was inoculated onto confluent HFF cell monolayers by absorption for 60 minutes at 37° C. After absorption of the virus, the inoculum was aspirated from the cell monolayers.
The VZV-infected monolayers were rehydrated with medium containing the appropriate concentrations of compounds to be tested. All monolayers were incubated at 37° C. Development of VZV cytopathology was monitored daily for 7 days by inverted light microscopy. Titers were calculated by multiple regression analysis.
Sham-inoculated, non-treated HFF cell monolayers were included among with the drug-treated monolayers as cell monolayer controls.
VZV inoculated, non-treated HFF monolayers were included as positive controls.

RE strain HSV-1 = test: Topical efficacy in RE strain HSV-1-induced stromal keratitis in the rabbit; assay type: in vivo, NZW rabbit; conditions: for efficacy ranking during stromal HSV-1 infection: Example 3, all eyes, FIG. 1, 1 mg/ml (TFT 0.1%), 9x/day, 5 days; for efficacy ranking, average stromal disease scores: Example 4, FIG. 2
Method: The following examples describe topical ocular evaluation of the inventive compounds during RE strain HSV-1-induced stromal keratitis in the rabbit. These evaluations included analysis of the topical efficacy of both the inventive compounds alone, or, in certain instances, in combination with trifluorothymidine (TFT). The evaluation was carried out by the combined analysis of both clinical and virological (HSV-1 recovery) parameters. The specified number of NZW rabbits (1.5-2.0 kg) were used. Animals were received at least two days prior to inoculation to allow them to accommodate to the conditions in the vivarium facility. This conditioning of the animals prior to inoculation minimizes animal variability. After the accommodation, the animals received a slit-lamp examination to exclude any animals with pre-existing anterior segment ocular defects. Animals were bi-laterally inoculated by intrastromal injection of 10^5 PFU RE strain HSV-1. The animals were then replaced individually into cages. On day number three post-inoculation (PI), the animals were evaluated by slit-lamp microscopy. Corneal stromal, iris and conjunctival disease were graded on an increasing scale of severity from 0+ to 4+. After evaluation, the animals were divided into a specified number of groups each containing an equal number of animals based on a matched corneal stromal involvement. Topical therapy was initiated immediately after animal groupings. All animals received daily slit-lamp evaluations from day 3 through 7 PI. The ocular HSV-1 induced disease severity was recorded daily. […] Differences in disease resolution and development of stromal alterations are statistically analyzed. Virus recovery during and after topical therapy was compared. The topical efficacy of Compounds 23 and 96 on stromal HSV-1 infection in the rabbit model of stromal keratitis was evaluated. All animals received daily slit lamp evaluations from day 3 through day 7 and on days 9 and 10 PI. The ocular HSV-1-induced disease severity was recorded daily. The topical efficacy of Compounds 23, 96 and 82 on stromal HSV-1 infection in the rabbit model of stromal keratitis was evaluated. All animals received daily slit lamp evaluations for day 3 through day 7 PI. The ocular HSV-1-induced disease severity was recorded daily. The topical efficacy of Compounds 23 and 96 in combination with TFT on stromal HSV-1 infection in the rabbit model of stromal keratitis was evaluated. Groups 1, 2 and 3 each have 5 animals for a total of 10 eyes per combination therapy. This allowed minimization of individual animal variability and performance of a statistical analysis on the results of the combination therapies. Groups 3, 4 and 5 have 2 animals each. These single-agent therapies were used to verify previously reported data on the efficacy of these compounds. The compounds are used at a lower frequency of delivery to match the dosing regimen of the combination-agent group. Consequently, the study also provides comparative information on Compounds 23 and 96 as a lower frequency of topical administration (4 times per day vs. 9 times per day in previous studies).

HFF cells [2] = test: MTT assay for cell cytotoxicity; assay type: cell-based, human; conditions: stationary cells
Method: Twenty-four hours prior to assay, HFF cells are plated into 96 well plates at a concentration of […] cells per well. After 24 h, the media is aspirated and […] of drug is added to the first row of wells and then diluted serially 1:5 using the automated Cetus Liquid Handling System in a manner similar to that used in the CPE assay. The plates are then incubated in a CO2 incubator at 37° C. for seven days. At this time, each well receives 50 microliters of […] solution of MTT in Dulbecco's Phosphate Buffered Saline. The plates are then incubated for an additional four hours. At this time, the media is removed and replaced with 100 μl of 0.04N hydrochloric acid in isopropanol. After shaking briefly, the plates are then read on a plate reader at 550 nm.

[3] = 0.1 mg/ml, toxicity observation questionable

| Compound | # Infected/# Inoculated (HSV-2 (MS strain); started +6h) | Mean Peak Virus Titer (HSV-2 (MS strain); started +6h) | P-Value for Mean Peak Virus Titer (HSV-2 (MS strain); started +6h) | Virus Titer-Day Area Under Curve (HSV-2 (MS strain); started +6h) | # Infected/# Inoculated (HSV-2 (MS strain); started +24h) | Mean Peak Virus Titer (HSV-2 (MS strain); started +24h) | Virus Titer-Day Area Under Curve (HSV-2 (MS strain); started +24h) | infectivity rate (HSV-2 (MS strain)) [%] | toxicity IC50, neutral red uptake (HFF cells [1]) [MCG/ML] | virucidal efficacy (VZV titer) (VZV; [3]) | virucidal efficacy (VZV titer) (VZV; 2 mg/ml) [PFU/ml] | virucidal efficacy (VZV titer) (VZV; 5 mg/ml) [PFU/ml] | efficacy ranking during stromal HSV-1 infection (RE strain HSV-1) | efficacy ranking, average stromal disease scores (RE strain HSV-1) | toxicity IC50, MTT toxicity (HFF cells [2]) [MCG/ML] | virucidal efficacy (VZV titer) (VZV; 0.001 mg/ml) | virucidal efficacy (VZV titer) (VZV; 0.01 mg/ml) | effective virucidal concentration IC50 (VZV) [µg/mL] | also measured |
| --- | --- | --- | --- | --- | --- | --- | --- | --- | --- | --- | --- | --- | --- | --- | --- | --- | --- | --- | --- |
| CC1=CC(C)=[N+]2CC[N+]3=C(C)C=C(C)[O][Co-3]23([NH3+])([NH3+])[O]1.[Cl-] [Compound 23, reference compound] | 5/10 | 1.1 | < 0.001 | 1.7 | 10/10 | 4.1 | 14.5 | 50 | 11.5 | T? | 0 | 0 | Compound 96>>Compound 23>TFT>Placebo | Compound 96>Compound 82>Compound 23>TFT=Placebo | > 61 |  |  |  | virucidal efficacy (VZV titer) (VZV; 0.5 mg/ml): 0 PFU/ml; virucidal efficacy (VZV titer) (VZV; 1 mg/ml): 0 PFU/ml; efficacy vs TFT therapy (RE strain HSV-1; Example 3, days 7, 9 and 10 PI): superior to TFT therapy; effect on stromal disease severity/progression (RE strain HSV-1; Example 5, FIG. 5, initial stromal disease <0.5 on day 3 PI): slowed the progression of stromal disease |
| CC([O-])=CC(C)=NCCN=C(C)C=C(C)[O-].[Cl-].[Co+3].c1c[nH]cn1.c1c[nH]cn1 [Compound 82] | 5/10 | 1.1 | < 0.001 | 3.3 | 10/10 | 4.6 | 26.4 | 50 |  |  |  |  |  | Compound 96>Compound 82>Compound 23>TFT=Placebo |  |  |  |  | effect on virus titer AUC (HSV-2 (MS strain); started +24 h): failed to alter the virus titer AUC; efficacy relative to Compounds 23 and 96 (RE strain HSV-1; Example 4): intermediate between Compounds 23 and 96; reduction of stromal disease development (RE strain HSV-1; Example 4, 1 mg/ml, severity <0.5+ on day 3 PI): effective in reducing the development of stromal disease; effect on development or progression of stromal disease (RE strain HSV-1; Example 4, severity >0.75): did not alter the development or progression of stromal disease |
| CC(=NCCN=C(C)C(Cl)=C(C)[O-])C(Cl)=C(C)[O-].[Br-].[Co+3].c1c[nH]cn1.c1c[nH]cn1 [Compound 93] |  |  |  |  |  |  |  |  | 27.3 | T? |  |  |  |  | 65.0 | 10^4 PFU/ml | 10^2 PFU/ml | 10 |  |
| CC([O-])=CC(C)=NCCN=C(C)C=C(C)[O-].Cc1ncc[nH]1.Cc1ncc[nH]1.[Br-].[Co+3] [Compound 96] |  |  |  |  |  |  |  |  | 22.0 | T? | 0 | 0 | Compound 96>>Compound 23>TFT>Placebo | Compound 96>Compound 82>Compound 23>TFT=Placebo | > 74 | 10^4 PFU/ml | 10^2 PFU/ml | 10 | comparison with all other therapies in reducing/preventing corneal stromal keratitis (RE strain HSV-1; Example 3): superior to all other therapies in reducing and/or preventing the development of corneal stromal keratitis; scarring vs TFT animals (RE strain HSV-1; Example 3): significantly lower than the scarring in the TFT animals; comparison with compound 23 (RE strain HSV-1; Example 3, all of the therapies used): superior properties in all of the therapies used in the studies as compared to compound 23; efficacy vs other topical therapies (RE strain HSV-1; Example 3, days 4, 5 and 6 PI): significantly better results than the other topical therapies; efficacy vs TFT, Placebo and Compound 23 (RE strain HSV-1; Example 3, eyes with stromal disease <0.75 on day 3 PI): statistically better than TFT, Placebo and Compound 23; difference between Compound 96 single-agent and Compound 96 plus TFT (RE strain HSV-1; Example 5, FIG. 7, <0.5 on day 3 PI): No difference; effect on development and progression of stromal disease (RE strain HSV-1; Example 5, FIG. 7, score <0.5 on day 3 PI, 4 times per day): highly effective and slowed the progression and development stromal disease |
